Data on one compound can be found in publication PMC9817100, “Preclinical profiles of SKB264, a novel anti-TROP2 antibody conjugated to topoisomerase inhibitor, demonstrated promising antitumor efficacy compared to IMMU-132” (Frontiers in Oncology, 2022).

Where two headings read alike, the source gives them in different places.

The test system of series [1] is HCC1806 (TROP2+). As to the kind of experiment: cytotoxic assay (CellTiter-Glo, 72 h) HCC1806. Type of series: cell-based, human. Particulars: Homo sapiens. The protocol: (§1) Tumor cells were seeded on 96-well plates at the following concentrations: HCC1806 (3,000 cells per well), NCI-N87 (5,000 cells per well), BxPC-3 (2,000 cells per well), Calu-3 (8,000 cells per well), NCI-H23 (TROP2+, 3,000 cells per well), and NCI-H23 (parental, 3,000 cells per well). After overnight incubation, the diluted testing items were added respectively. After 72 h, cell viability was evaluated using a CellTiter-Glo Luminescent Cell Viability Assay (Promega Corp. Madison, WI), following the manufacturer’s instruction.
For orientation: In ATP-based viability assays light output follows the ATP content of the culture.

The subject of series [2] is NCI-N87 (TROP2+). In words: cytotoxic assay (CellTiter-Glo, 72 h) NCI-N87. It counts as cell-based. To be noted: Homo sapiens, read-out: IC50 cell growth inhibition. On the procedure:
as §1

The subject of series [3] is BXPC3 (TROP2+). As to the kind of experiment: cytotoxic assay (CellTiter-Glo, 72 h) BxPC-3. Type of series: cell-based. To be noted: Homo sapiens, read-out: IC50 cell growth inhibition. The protocol: as §1
Series [4] has as its system Calu-3 (TROP2+). In words: cytotoxic assay (CellTiter-Glo, 72 h) Calu-3. Particulars: Homo sapiens, read-out: IC50 cell growth inhibition. Type of series: cell-based. On the procedure: as §1
Series [5] concerns NCI-H23(TROP2+). In words: cytotoxic assay (CellTiter-Glo, 72 h) NCI-H23 (TROP2+). Particulars: Homo sapiens, read-out: IC50 cell growth inhibition. It counts as cell-based. On the procedure: as §1
Series [6] deals with NCI-H23 (TROP2-). As to the kind of experiment: cytotoxic assay (CellTiter-Glo, 72 h) NCI-H23 (parental). It counts as cell-based. Particulars: Homo sapiens, read-out: IC50 cell growth inhibition. On the procedure:
as §1

Series [7] concerns HCC1806, NCI-N87, BxPC3, Calu3, NCI-H23 (TROP2+), NCI-H23 (parental). As to the kind of experiment: cytotoxic assay, range over the six tumor cell lines. Type of series: cell-based. Particulars: Homo sapiens, read-out: IC50 values, range over six cell lines. On the procedure: as §1
To evaluate the effect of SKB264 on tumor cell proliferation, in vitro growth inhibition of cancer cell lines was determined by CellTiter-Glo Luminescent Cell Viability Assay. Cancer cell lines, including HCC1806, NCI-N87, BxPC3, Calu3, and NCI-H23 (TROP2+), highly expressed TROP2, while NCI-H23 (parental) was TROP2-negative ( Figure 3 ). […] NCI-H23 (TROP2+) cells were more sensitive to SKB264 than parental cells (TROP2−). […] Taken together, after SKB264 endocytosed through its interaction with TROP2 on cell surface, the releasing free KL610023 can inhibit tumor cell proliferation.

Series [8] in a line: PK of SKB264 and KL610023 in cynomolgus monkeys (serum). It counts as in vivo. To be noted: unconjugated KL610023 0.24 mg/kg single i.v. infusion, n = 6, mean ± SD. On the procedure: The PK properties of SKB264 and Tab were determined by ELISA, for which the lower limit of quantitation was 7.813 ng/ml. The serum concentration of KL610023 was measured by a validated liquid chromatography tandem mass spectrometry (LC/MS-MS), for which the lower limit of quantitation was 0.100 ng/ml. A total of 24 cynomolgus monkeys were randomized into four groups (n = 3/sex/group). Groups #1, #2, and #3 were treated with 1, 3, and 10 mg/kg of SKB264, respectively, via 15 min i.v. infusion once. Group #4 received 0.24 mg/kg of unconjugated KL610023 via i.v. infusion once. The serum concentrations of SKB264, Tab, and KL610023 were continually measured up to 672 h post-dose.
(§2) Phoenix WinNonlin 8.1 was used to calculate the PK parameters in the non-compartment model, including t 1/2, T max, C max, AUC0-t, and AUC0-∞. […] The half maximal effective concentration (EC50) and half maximal inhibitory concentration (IC50) were calculated using a nonlinear regression model with sigmoidal fitting. The in vitro antitumor activities of drugs were evaluated by a two-tailed paired t-test.

The nature of series [9]: tissue distribution after single i.v. injection in tumor-bearing nude mice. Type of series: in vivo. Particulars: [3H]KL610023 0.1 mg/100 µCi/kg single i.v.; HCC1806 xenografted nude mice. On the procedure:
A total of 96 female nude mice bearing human HCC1806 tumor cells were divided into 16 groups (n = 6 mice/group) according to body weights and tumor volumes. After receiving a single i.v. injection of [^3H]KL610023, at 0.083, 4, 24, and 72 h, as well as a single i.v. injection of [^3H-KL610023]SKB264, [^3H]SKB264-mAb, or [^3H-mAb]SKB264 at 1, 24, 168, and 336 h post-dosing, blood, tumor tissue, and 16 types of normal tissues were collected from the euthanized mice.
Plasma samples were directly quantified by liquid scintillation counting (LSC) without further manipulation; however, the blood and tissue samples were digested with 1N of KOH at 90°C prior to quantification by LSC. The […] (TRA) for blood, plasma, and tissues was converted to nanogram equivalent of [^3H]KL610023 or TRA (ng Eq./g).

The subject of series [10] is HCC1806 xenograft. As to the kind of experiment: PK-PD study, single dose, HCC1806 xenograft. It counts as in vivo, BALB/c nude mice. Particulars: tumor; payload after single i.v. 3 mg/kg SKB264 (KL610023) or IMMU-132 (SN-38); HCC1806 tumor-bearing mice; mean, n = 5. The protocol: as §2
Series [11] in a line: payload KL610023 PK in plasma of cynomolgus monkey (Table 5). It counts as in vivo. Also noted: Vz_obs / Cl_obs: unit not given here. Particulars: KL610023 administered, n=4, dose not given. The source says:
Since the metabolism of ADC is different from that of the toxic payload ([30], [31]), the linkage of SKB264 mAb can dramatically prolong the half-life of KL610023 as compared to KL610023 alone. Nevertheless, after being released from SKB264, KL610023 could be rapidly eliminated. […] Overall, the proprietary technology used in our study to construct SKB264 could ensure a more precise delivery process.

The nature of series [12]: metabolic related experiments (hepatic circulation). To be noted: unlike SN-38.
Setting [13] is: both sexes, cynomolgus monkey, in vivo, iv.

As usually defined, the half-life is the time needed for the level to fall by half in the phase considered. Usually AUC(0-inf) stands for total exposure, with the tail of the curve extrapolated. Usually AUC(0-t) stands for the area under the concentration-time curve up to a stated or last time point. The term Cmax denotes the maximum level reached in the sampled fluid or tissue. For the compound `CC[C@@]1(O)C(=O)OCc2c1cc1n(c2=O)Cc2c-1nc1ccccc1c2CCN(C(C)C)S(C)(=O)=O` [KL610023], the IC50 was 1.5 nM in [1] (HCC1806 (TROP2+), 72 h, Figure 2D, read-out: IC50 cell growth inhibition); 1.82 nM in series [1] (HCC1806, payload comparison, Figure 7C, duplicates, read-out: IC50 inhibition of proliferation of HCC1806 cells); 2.01 nM in series [2]; 6 nM in series [3]; 1.36 nM in [4]; 4.77 nM in series [5]. Moreover, the IC50 in series [6] is 2.14 nM; in series [7], 1.36 to 6 nM. Also, the half-life was 5.7 h in series [8] (both sexes, cynomolgus monkey, in vivo, iv, 0.24 mg/kg) and 1.6 h in [11]. Besides, the AUC(0-inf) in series [8] (setting [13]) amounted to 230 ± 43.9 ng·h/mL; in series [11], 97 ± 26.9 ng·h/mL. The AUC(0-t) in [8] (setting [13]) came out at 228 ± 44.2 ng·h/mL; in series [11], 97 ± 26.7 ng·h/mL. Also, in series [8] (0.24 mg/kg), the “t 1/2” value was determined as 5.65 ± 2.53 h. For the same compound, the “distribution of total radioactivity” value in [9] is “widely distributed in the tissues and organs that had more abundant blood flow”. In addition, the “AUC0-∞ of payload” value in series [10] was determined as 1949 ng·h/g. This compound had an AUClast of payload in [10] of 1903 ng·h/g. In series [11], this compound gave a Cl_obs of 535 ± 148. Moreover, the Cmax in [11] was found to be 273 ± 54.4 ng/mL. In series [11], this compound gave a Vz_obs of 1119 ± 548. Further, in [12], the hepatic circulation result was “no hepatic circulation”.
